This experiment deals with Caco-2 cells. Briefly: Endocytosis inhibition experiments (Neu5Gc incorporation). The experiment is classed as cell-based, human. The conditions noted are these: Caco-2, 2 h pre-treatment with drug, then 3 mM Neu5Gc. The protocol: The sonicate was centrifuged at 75×g for 15 min., and the pellet Obtained consisted primarily of nuclei and unbroken cells. […] A portion (20%) of the “total homogenate” fraction was taken for protein quantification and Sia analysis by DMB derivatization and HPLC analysis (as discussed below.) The remainder was centrifuged at 100,000×g for 1 h. The resulting pellet, called the “membrane” fraction, was then resuspended by sonication (15 sec.) in 200 μl of sodium acetate buffer, pH 5.5. The 100,000×g supernatant, called the “soluble” fraction was adjusted to 90% ethanol using absolute ice-cold ethanol, and placed overnight at −20° C. The flocculant precipitate, which represents the “soluble protein” fraction, was washed 3 times with 90%® ice-cold ethanol and then resuspended in 200 μl of water. The supernatant fluid representing the cytosolic low molecular weight (LMW) fraction was dried and brought up in 100 μL with water prior to Sia analysis. All the Sias in these fractions were released with mild acid hydrolysis if necessary and then analyzed by HPLC after DMB derivatization. Protein quantification was performed on the total homogenate, membrane and soluble protein fractions by using the BCA protein assay kit from Pierce (Rockford, Ill.) In some experiments, the resulting data obtained for the Sia bound to the membrane fraction and to the soluble proteins were pooled and presented here as a High Molecular Weight (HMW) fraction. Sialic Acid Release, DMB Derivatization and HPLC Analysis—The bound Sias from the total homogenate, membrane and soluble protein fractions were released using 2M acetic acid hydrolysis, 3 h. at 80° C. The released Sias, or free Sias, contained in the soluble LMW fraction were passed through a Microcon® YM-10 filter (Millipore, Bedford, Mass.) prior to DMB derivatization, which was done according to Hara et al., 1989. […] The eluant was monitored by fluorescence. Quantification of Sias—For all HPLC chromatograms, the quantification of Sias was done by comparison with known quantities of DMB derivatized Neu5Gc and Neu5Ac used as standards and then reported in terms of pmoles of Sia. For total homogenate, membrane and cytosolic protein fractions, this number was expressed per mg of protein. Due to minor sample-to-sample variations in amounts and recoveries, the data in the Figures is presented as percent of Neu5Gc over total Sias, rather than as absolute amounts. Endocytosis Inhibition Experiments—Caco-2 or normal fibroblast cells were split and cultured in alpha-MEM media supplemented respectively with 20% or 15% human serum for 4 days before starting the endocytosis drug inhibition experiments in order to deplete any Neu5Gc derived from FCS. Cells were then pre-treated for 2 h. with the specific inhibitors under the same culture conditions. Fresh media containing the same amount of inhibitor and 3 mM of Neu5Gc was then added to the cells, which were incubated for 16 h or 3 days and finally harvested and fractionated as described above.

SMILES strings stand for the structures.

Take `N=C(N)NC(=O)c1nc(Cl)c(N)nc1N` [amiloride]: the “Neu5Gc incorporation into membrane-bound glycoconjugates in the presence of inhibitor” value was 10%.

As to `CN(C)CCCN1c2ccccc2Sc2ccc(Cl)cc21` [chlorpromazine], the “Neu5Gc incorporation into membrane-bound glycoconjugates in the presence of inhibitor” value is reported as 50%.

For the compound `O=c1c(-c2ccc(O)cc2)coc2cc(O)cc(O)c12` [genistein], the “Neu5Gc incorporation into membrane-bound glycoconjugates in the presence of inhibitor” value came out at 34% and the “incorporation of Neu5Gc in the TH fraction in the presence of inhibitor” value was 51%.

In the case of `C[C@@H]1[C@H](O)[C@@H](C)/C=C/C=C/CC/C=C/C=C/C=C/C=C/C(O[C@H]2O[C@H](C)[C@@H](O)[C@H](N)[C@@H]2O)CC2O[C@](O)(CC(O)C(O)CCC(O)CC(O)CC(O)CC(=O)O[C@H]1C)CC(O)C2C(=O)O` (stereo partly drawn) [nystatin], the “Neu5Gc incorporation into membrane-bound glycoconjugates in the presence of inhibitor” value came out at 44% and the “incorporation of Neu5Gc in the TH fraction in the presence of inhibitor” value is recorded as ~65%.

Values taken from US8232448B2, “Transgenic mouse with a homozygous mutation in the CMAH gene” (The Regents of the University of California, priority 2005, dated 2012).
